Experimental findings from US20240374563A1, “ANTICHOLINERGIC COMPOUNDS FOR USE IN TREATING NEUROMUSCULAR DISORDERS” (UNIVERSITY OF MONTRÉAL, priority 2022, published 2024) are described below.

The subject of the experiment is SOD1^G37R mice. Description: Grip strength. It counts as in vivo, mouse. The settings on record: from P490 until the end of the trial; treatment from disease onset; N=19. From the text:
Mice of the darifenacin and placebo groups began the trial with a similar grip strength force.
The pre-clinial trial design was made according to guidelines for preclinical animal research in ALS/MND [35]. Male mice from the SOD1^G37R background and their WT littermates were included in the preclinical study. Mice were randomly assigned to the experimental or the placebo group. Treatment, behavior monitoring, experiments and results analysis were done blindly. Standard ALS behavioral measurements were performed biweekly to measure disease progression in the various study groups. This includes rotarod test. grip strength measurements, weight measurements and tail suspension test to assess hindlimb extension reflex.

As to `NC(=O)C(c1ccccc1)(c1ccccc1)[C@@H]1CCN(CCc2ccc3c(c2)CCO3)C1` [darifenacin], the “grip strength vs placebo” value is given as “performed better”.
